A short description of the data set: in vitro. The note with it: human, hela cells, % viability.

These results are taken from article PMC12040169 (PLOS Biology, 2025).

For the compound `Cc1cc2c(cc1Br)NC(=O)/C2=N\O` [CBK288453], the viability at 28.5 h, 10 µM was found to be 56%.

As for `Cc1nc(S)[nH]c(=O)c1Cc1ccc(F)cc1` [CBK288456], the viability at 28.5 h, 10 µM came to 107%.

`Cc1cc(N2CCCC2=O)cc(C)c1S(N)(=O)=O` [CBK288458]: the viability at 28.5 h, 10 µM was 89.9%.

In the case of `O=c1[nH]nc2ccc(S(=O)(=O)N3CCCCC3)cn12` [CBK288459], the viability at 28.5 h, 10 µM was 89.5%.

Consider `COc1ccc(-c2c[nH]c3c(=S)[nH]cnc23)cc1` [CBK288462], for which the viability at 28.5 h, 10 µM turned out to be 60.5%.

In the case of `CC1(C)CC(=O)C2=C(C1)Nc1[nH][nH]c(=O)c1C2c1ccccn1` (centres unmarked) [CBK288463], the viability at 28.5 h, 10 µM stood at 92%.

In the case of `CCC(=O)NC(=S)Nc1ccc(C(=O)N2CCCC2)cc1` [CBK288464], the viability at 28.5 h, 10 µM is 108%.

As for `Cn1c(-c2ccccc2)c(C(=O)C(N)=O)c2ccccc21` [CBK288465], the viability at 28.5 h, 10 µM worked out at 104%.

As to `NC(=O)C(=O)c1c(-c2ccccc2)cc2ccccn12` [CBK288466], the viability at 28.5 h, 10 µM came to 100%.

As to `O=c1[nH]nc2c(S(=O)(=O)N3CCOCC3)cccn12` [CBK288469], the viability at 28.5 h, 10 µM stood at 94.1%.

Consider `O=c1[nH]nc2c(SC3CCCCC3)nccn12` [CBK288471], for which the viability at 28.5 h, 10 µM was 69.4%.

With `O=C(NCc1ccccn1)/C(=N/O)c1ccccc1` [CBK288472], the viability at 28.5 h, 10 µM was 114%.

On to `S=c1nc(-c2ccccc2)n(-c2ccccc2)[nH]1` [CBK288474], for which the viability at 28.5 h, 10 µM was 103%.

Turning to `O=C(O)c1ccc(COc2ccccc2/C=N/O)cc1` [CBK288481], the viability at 28.5 h, 10 µM worked out at 108%.

As for `O=c1c2ccccc2nc(COc2ccccc2)n1O` [CBK288482], the viability at 28.5 h, 10 µM turned out to be 108%.

Consider `FC(F)(F)c1ccc2c(c1)nc(S)n2C1CC1` [CBK288483], for which the viability at 28.5 h, 10 µM is 86.2%.

On to `O=c1c2sccc2[nH]c(=S)n1CCc1ccccc1` [CBK288486], for which the viability at 28.5 h, 10 µM was 118%.

In the case of `CN(C)CCCNC(=O)c1ccc(/C=N/O)nc1` [CBK288489], the viability at 28.5 h, 10 µM is 121%.

Consider `O=c1[nH]nc2c(N3CCc4ccccc4C3)nccn12` [CBK288497], for which the viability at 28.5 h, 10 µM was 80.9%.

In the case of `S=c1[nH]cc(-c2ccc(Br)cc2)o1` [CBK288498], the viability at 28.5 h, 10 µM stood at 92.8%.

`CN(CCCCCC(=O)/C=N/O)Cc1ccccc1` [CBK288499]: the viability at 28.5 h, 10 µM stood at 91.7%.

Consider `O/N=C/c1ccc(-c2cc(Cl)ccc2Cl)o1` [CBK288500], for which the viability at 28.5 h, 10 µM is 92.6%.

For the compound `Fc1cccc(C2NC(S)=NC3=C2N2CCC3CC2)c1` (centres unmarked) [CBK288503], the viability at 28.5 h, 10 µM was determined as 88.2%.

For `CC(C)CCn1c(=S)[nH]c2c(oc3ccccc32)c1=O` [CBK288504], the viability at 28.5 h, 10 µM was found to be 100%.

As to `CCCCn1c(S)nc2c(-c3ccccc3)c[nH]c2c1=O` [CBK288505], the viability at 28.5 h, 10 µM was found to be 96.2%.

On to `S=C1NC2c3ccccc3OC3(CCCCC23)N1` (centres unmarked) [CBK288506], for which the viability at 28.5 h, 10 µM amounted to 102%.

Consider `S=c1[nH]nc(COc2ccc(Cl)cc2Cl)[nH]1` [CBK288511], for which the viability at 28.5 h, 10 µM amounted to 80.3%.

In the case of `NS(=O)(=O)c1cc(C(=O)NCCc2ccc(F)cc2)c(Cl)cc1Cl` [CBK288512], the viability at 28.5 h, 10 µM was 96.7%.

Consider `Cc1cn(-c2ccc(Br)cc2)[nH]c1=O` [CBK288513], for which the viability at 28.5 h, 10 µM is 92.7%.

Regarding `COc1ccc(C(=S)NCCCCCC(=O)O)cc1` [CBK288523], the viability at 28.5 h, 10 µM worked out at 87.1%.

For the compound `CC1CCc2c(sc(NC(=O)c3ccncc3)c2C(N)=O)C1` (centres unmarked) [CBK288530], the viability at 28.5 h, 10 µM was determined as 87.8%.

In the case of `C1=Nn2c(nnc2-c2ccncc2)SC(c2ccccc2)=C1` [CBK288535], the viability at 28.5 h, 10 µM came out at 101%.

Turning to `CCSc1nc(-c2ccncc2)ccc1C#N` [CBK288539], the viability at 28.5 h, 10 µM came out at 75.2%.

For `CN1CCc2c(sc3ncn4nc(-c5ccncc5)nc4c23)C1` [CBK288540], the viability at 28.5 h, 10 µM was found to be 96.2%.

In the case of `Cc1nc2sc3c(c2c2nc(-c4ccncc4)nn12)CCCC3` [CBK288541], the viability at 28.5 h, 10 µM was 94.5%.

Take `c1cc(-c2nnc3n2CCCCS3)ccn1` [CBK288543]: the viability at 28.5 h, 10 µM was determined as 99.3%.

On to `Brc1cnc(-n2cnc3ccccc32)nc1` [CBK288546], for which the viability at 28.5 h, 10 µM stood at 84.2%.

Consider `N#Cc1sc2nc(-c3ccncc3)ccc2c1N` [CBK288547], for which the viability at 28.5 h, 10 µM worked out at 78.3%.

Consider `Cc1nn2c(-c3ccncc3)ccnc2c1-c1ccccc1` [CBK288548], for which the viability at 28.5 h, 10 µM is 103%.

As to `OCc1nnn(-c2ccncc2)c1CO` [CBK288549], the viability at 28.5 h, 10 µM amounted to 96.8%.

As to `Cc1ccc(-c2ncc3c(=O)[nH]c(=O)n(C)c3n2)cc1` [CBK288553], the viability at 28.5 h, 10 µM worked out at 89.6%.

Regarding `O=C1Nc2ccccc2C(O)(C(=O)NCc2ccccc2)N1c1ccccc1` (centres unmarked) [CBK288555], the viability at 28.5 h, 10 µM is 91.1%.

Regarding `Cc1ccc(C)c(-c2csc3c(=O)[nH]cnc23)c1` [CBK288556], the viability at 28.5 h, 10 µM came to 101%.

For the compound `O=C(O)CCc1nc(-c2ccncc2)no1` [CBK288558], the viability at 28.5 h, 10 µM worked out at 98.7%.

With `COc1cc2[nH]c(=S)n3nc(-c4ccncc4)nc3c2cc1OC` [CBK288559], the viability at 28.5 h, 10 µM is 104%.

For `CSc1nc2ccccc2c2nc(-c3ccncc3)nn12` [CBK288566], the viability at 28.5 h, 10 µM turned out to be 99.7%.

Consider `CCCCn1c(SCc2nc(-c3ccncc3)no2)nc2ccsc2c1=O` [CBK288576], for which the viability at 28.5 h, 10 µM stood at 87%.

On to `O=C(NCCn1c(-c2ccncc2)nc2ccccc21)c1ccc(F)c(F)c1` [CBK288577], for which the viability at 28.5 h, 10 µM came to 88.9%.

For the compound `O=S(=O)(NCCn1c(-c2ccncc2)nc2ccccc21)c1ccccc1` [CBK288578], the viability at 28.5 h, 10 µM came to 87.2%.

As to `O=S(=O)(Cc1ccc(-c2nc(-c3ccncc3)no2)o1)c1ccccc1` [CBK288579], the viability at 28.5 h, 10 µM is 96.6%.

As for `Cc1cccc(NC(=O)NCCCn2c(-c3ccncc3)nc3cccnc32)c1` [CBK288580], the viability at 28.5 h, 10 µM turned out to be 97.5%.

As to `COCCNC(=O)NCCCn1c(-c2ccncc2)nc2cccnc21` [CBK288581], the viability at 28.5 h, 10 µM worked out at 98.6%.

As for `O=C1CC(c2nc(-c3ccncc3)no2)CN1c1ccc2c(c1)OCO2` (centres unmarked) [CBK288583], the viability at 28.5 h, 10 µM was 110%.

On to `NC(=O)Cn1cc(C(=O)c2ccncc2)c(=O)c2cc(Cl)ccc21` [CBK288584], for which the viability at 28.5 h, 10 µM is 86%.

`O=C(c1csc(-c2ccncc2)n1)N1CCN(c2ccccc2)CC1` [CBK288590]: the viability at 28.5 h, 10 µM was 110%.

On to `O=C(NC1CCCCC1)c1csc(-c2ccncc2)n1` [CBK288591], for which the viability at 28.5 h, 10 µM was determined as 64.2%.

Turning to `Cn1c(=O)n(Cc2ccccn2)c(=O)c2cnc(-c3ccncc3)nc21` [CBK288592], the viability at 28.5 h, 10 µM was 79%.

On to `Cc1cccc(Cn2c(=O)c3cnc(-c4ccncc4)nc3n(C)c2=O)c1` [CBK288593], for which the viability at 28.5 h, 10 µM was found to be 82.8%.

Regarding `O=C(CCn1cnc2cc(-c3noc(-c4cnccn4)n3)ccc21)N1CCCC1` [CBK288595], the viability at 28.5 h, 10 µM is 104%.

For `CCCN1C(=O)COc2ccc(-c3noc(-c4ccccn4)n3)cc21` [CBK288596], the viability at 28.5 h, 10 µM is 92.1%.

Take `Cc1ccc(S(=O)(=O)CCc2noc(-c3n[nH]c4ccccc34)n2)cc1` [CBK288598]: the viability at 28.5 h, 10 µM is 104%.

Turning to `O=C(Cn1c(=O)c2nncn2c2ncccc21)NC1CCCCCC1` [CBK288600], the viability at 28.5 h, 10 µM came to 92.3%.

`Cc1nnc2c(=O)n(CC(=O)N3CCN(C(C)C)CC3)c3cccnc3n12` [CBK288601]: the viability at 28.5 h, 10 µM came out at 94.3%.

As for `O=C(NCCc1ccccc1)c1nc(-c2ccncc2)cs1` [CBK288604], the viability at 28.5 h, 10 µM came out at 70%.

For the compound `CC(C)CC(=O)N1CCCn2nc(-c3ccncc3)cc2C1` [CBK288606], the viability at 28.5 h, 10 µM stood at 94.7%.

Turning to `O=C(c1ccncc1)N1CCCn2nc(-c3cccnc3)cc2C1` [CBK288607], the viability at 28.5 h, 10 µM was 88.7%.

Consider `O=S(=O)(CCc1ccccc1)N1CCCn2nc(-c3ccncc3)cc2C1` [CBK288608], for which the viability at 28.5 h, 10 µM is 87.3%.

Consider `O=C(c1cn(-c2cc(Nc3ccccc3)ncn2)cn1)N1CCOCC1` [CBK288610], for which the viability at 28.5 h, 10 µM is 103%.

In the case of `O=C(NC1CCCN(c2cc(-c3ccncc3)n[nH]2)C1)c1ccsc1` (centres unmarked) [CBK288619], the viability at 28.5 h, 10 µM was determined as 104%.

With `O=C(c1ccncc1)N1CCCC1(CO)Cc1ccccc1` (centres unmarked) [CBK288620], the viability at 28.5 h, 10 µM stood at 96.5%.

With `Brc1ccc(-c2ccnc3nc(-c4ccncc4)nn23)cc1` [CBK288623], the viability at 28.5 h, 10 µM is 102%.

For the compound `Cc1nc2ccccn2c1-c1csc(N)n1` [CBK288628B], the viability at 28.5 h, 10 µM was determined as 91.7%.

With `CC(C)(C)CC(=O)N1C[C@@H]2C[C@H](C1)c1ccc(NS(=O)(=O)c3cccs3)c(=O)n1C2` [CBK288708], the viability at 28.5 h, 10 µM stood at 80.6%.

With `CCCS(=O)(=O)Nc1ccc(=O)n2c1[C@@H]1C[C@@H](CN(C(=O)c3ccc(OC)cc3)C1)C2` [CBK288711], the viability at 28.5 h, 10 µM turned out to be 78.3%.

For the compound `O=C(Nc1ccccc1)Nc1ccc(=O)n2c1[C@@H]1C[C@@H](CN(C(=O)c3ccc(F)cc3)C1)C2` [CBK288714], the viability at 28.5 h, 10 µM amounted to 104%.

Turning to `O=C(Nc1ccc(=O)n2c1[C@@H]1C[C@@H](CN(C(=O)Nc3ccc(F)cc3)C1)C2)c1ccccc1` [CBK288715], the viability at 28.5 h, 10 µM turned out to be 89.9%.

Take `O=C(NC1CC1)[C@H]1O[C@H](CCN2CCN(c3ccccc3)CC2)CC[C@@H]1O` [CBK288717]: the viability at 28.5 h, 10 µM worked out at 96.8%.

With `C#CCN(C)CC[C@@H]1CC[C@H](O)[C@@H](C(=O)NC(C)C)O1` [CBK288718], the viability at 28.5 h, 10 µM came out at 109%.

With `CC(C)NC(=O)[C@H]1O[C@H](CCN2CCN(c3ccccc3)CC2)CC[C@@H]1O` [CBK288719], the viability at 28.5 h, 10 µM is 123%.

Take `CC(C)NC(=O)[C@H]1O[C@H](CCN2CCN(c3ccc(F)cc3)CC2)CC[C@@H]1O` [CBK288721]: the viability at 28.5 h, 10 µM was determined as 98.8%.

As to `CC(C)NC(=O)[C@H]1O[C@H](CCN2CCN(c3ccccn3)CC2)CC[C@@H]1O` [CBK288722], the viability at 28.5 h, 10 µM amounted to 90.7%.

`C#CCN(C)CC[C@@H]1CC[C@H](O)[C@@H](C(=O)N2CCOCC2)O1` [CBK288723]: the viability at 28.5 h, 10 µM is 108%.

Regarding `O=C(Nc1ccccc1)[C@H]1O[C@H](CCN2CCN(c3ccccn3)CC2)CC[C@@H]1O` [CBK288726], the viability at 28.5 h, 10 µM turned out to be 87.9%.

The term viability denotes a read-out of living cells in per cent, often relative to untreated cells.
